Laboratory results published in ChEMBL document CHEMBL1156441, “Mechanism of inactivation of plasminogen activator inhibitor-1 by a small molecule inhibitor” (J Biol Chem, 2007).

Tests used:
Design in all cases: scale not given: the % may be the effect or the level left
[1] = organism: Homo sapiens; assay: Inhibition of human non-glycosylated PAI1 R76A mutant using urokinase type plasminogen activator substrate assessed as change in IC50 value relative to wild type by direct chromogenic assay
[2] = organism: Homo sapiens; assay: Inhibition of human non-glycosylated PAI1 Y79A mutant using urokinase type plasminogen activator substrate assessed as change in IC50 value relative to wild type by direct chromogenic assay
[3] = organism: Homo sapiens; assay: Inhibition of human non-glycosylated PAI1 K80A mutant using urokinase type plasminogen activator substrate assessed as change in IC50 value relative to wild type by direct chromogenic assay
[4] = organism: Homo sapiens; assay: Inhibition of human non-glycosylated PAI1 T93A mutant using urokinase type plasminogen activator substrate assessed as change in IC50 value relative to wild type by direct chromogenic assay
[5] = organism: Homo sapiens; assay: Inhibition of human non-glycosylated PAI1 T94A mutant using urokinase type plasminogen activator substrate assessed as change in IC50 value relative to wild type by direct chromogenic assay
[6] = organism: Homo sapiens; assay: Inhibition of human non-glycosylated PAI1 D95A mutant using urokinase type plasminogen activator substrate assessed as change in IC50 value relative to wild type by direct chromogenic assay
[7] = organism: Homo sapiens; assay: Inhibition of human non-glycosylated PAI1 R118A mutant using urokinase type plasminogen activator substrate assessed as change in IC50 value relative to wild type by direct chromogenic assay
[8] = organism: Homo sapiens; assay: Inhibition of human non-glycosylated PAI1 T120A mutant using urokinase type plasminogen activator substrate assessed as change in IC50 value relative to wild type by direct chromogenic assay
[9] = organism: Homo sapiens; assay: Inhibition of human non-glycosylated PAI1 K122A mutant using urokinase type plasminogen activator substrate assessed as change in IC50 value relative to wild type by direct chromogenic assay
[10] = organism: Homo sapiens; assay: Inhibition of human non-glycosylated PAI1 F114A mutant using urokinase type plasminogen activator substrate assessed as change in IC50 value relative to wild type by direct chromogenic assay
[11] = organism: Homo sapiens; assay: Inhibition of human non-glycosylated PAI1 H143A mutant using urokinase type plasminogen activator substrate assessed as change in IC50 value relative to wild type by direct chromogenic assay

O=C(O)C(=O)c1cn(Cc2ccccc2)c2ccc(-c3ccc(OC(F)(F)F)cc3)cc12
Activity [1]: 48%
Activity [2]: 28%
Activity [3]: 14%
Activity [4]: 27%
Activity [5]: 54%
Activity [6]: 58%
Activity [7]: 7%
Activity [8]: -21%
Activity [9]: -25%
Activity [10]: 3%
Activity [11]: -14%
